Measurements: patent US12673946B2, “Pyrimidin-4(3H)-one derivatives as TRPV4 antagonists” (RaQualia Pharma Inc., priority 2020, dated 2026)

Biological target: T1, human TRPV4 (Homo sapiens, UniProt Q9HBA0)
T1 construct: host or cells: tetracycline-inducible Flp-In T-REx 293 cells
Experiment: Hypotonicity-induced Ca2+ influx (Fluo-4, FDSS)
Format: cell-based
Method: Hypotonicity-Induced Ca^2+ Influx
TRPV4 channel activation/opening results in an influx of Ca^2+ (Liedtke, W. et al., 2000 (NPL 1)). The resulting changes in intracellular calcium are monitored using a Ca^2+ sensitive fluorescent dye Fluo-4 (Invitrogen). Dye loaded cells are treated with the test compounds for 5 minutes prior to the addition of a hypotonic solution and the inhibition of the hypotonicity-induced activation is recorded.
Forty microL of tetracycline-inducible Flp-In T-REx 293 cells (Invitrogen) stably expressing human TRPV4 are seeded onto the poly-D-lysine coated 384-well plate (Corning) at a density of 10,000 cells per well. The following day, TRPV4 expression is induced by adding 0.5 microg/mL tetracycline for 20-24 hours. On the day of the experiment, the media is removed and replaced with 40 microL of dye loading buffer [1 microM Fluo-4 AM (Invitrogen), 0.01% Pluronic F-127, and 20 mM HEPES in Hanks' balanced salt solutions (HBSS; Invitrogen)] and then the cells are incubated for 60 minutes at 25° C. Dye is then removed and replaced with 20 microL of assay buffer (20 mM HEPES in HBSS). Five minutes prior to the fluorescence measurement, 10 microL of test compound is added to the cells. Using the FDSS instrument (Hamamatsu Photonics), 30 microL of hypotonic solution (90 mM D-mannitol and 1.26 mM CaCl2 in ultrapure water) is added 30 seconds after the start of measurement. The calcium flux signal is recorded for a total of 4.5 minutes.

[1] = Flp-In T-REx 293 cells expressing human TRPV4, examples listed under heading 'Human IC50<50 nM'
[2] = Flp-In T-REx 293 cells stably expressing human TRPV4, compounds listed by potency bin (<10 nM Tables 96-1/96-2, <3 nM Table 97)

T1 sequence (Q9HBA0 whole entry): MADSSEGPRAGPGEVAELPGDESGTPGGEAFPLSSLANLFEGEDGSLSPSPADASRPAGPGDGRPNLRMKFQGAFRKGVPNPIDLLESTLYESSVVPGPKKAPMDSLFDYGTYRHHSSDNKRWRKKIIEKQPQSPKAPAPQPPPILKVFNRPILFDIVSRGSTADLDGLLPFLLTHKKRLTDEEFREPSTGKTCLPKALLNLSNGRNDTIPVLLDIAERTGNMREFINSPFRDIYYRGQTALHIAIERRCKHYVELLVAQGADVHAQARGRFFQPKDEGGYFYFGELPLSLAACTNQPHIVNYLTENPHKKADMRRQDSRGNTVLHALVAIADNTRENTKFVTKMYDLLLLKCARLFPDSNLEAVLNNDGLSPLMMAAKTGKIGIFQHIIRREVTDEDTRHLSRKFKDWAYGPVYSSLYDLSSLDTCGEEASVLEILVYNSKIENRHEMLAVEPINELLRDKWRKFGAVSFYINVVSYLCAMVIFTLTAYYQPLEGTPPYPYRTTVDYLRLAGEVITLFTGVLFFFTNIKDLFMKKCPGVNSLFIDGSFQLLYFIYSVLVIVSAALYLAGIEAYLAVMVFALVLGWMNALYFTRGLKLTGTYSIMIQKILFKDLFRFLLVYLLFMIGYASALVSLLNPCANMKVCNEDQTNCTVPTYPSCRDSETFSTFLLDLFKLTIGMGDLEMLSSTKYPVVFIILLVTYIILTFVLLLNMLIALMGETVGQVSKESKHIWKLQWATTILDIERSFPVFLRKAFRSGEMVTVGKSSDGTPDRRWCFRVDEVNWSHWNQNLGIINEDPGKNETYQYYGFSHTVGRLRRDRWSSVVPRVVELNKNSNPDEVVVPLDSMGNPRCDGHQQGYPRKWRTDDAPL

| Compound | IC50 [1] [nM] | IC50 [2] [nM] |
| --- | --- | --- |
| O=C([C@H](O)c1cccc(Cl)c1)N1CCc2nc(C3(c4cc(C5CCC(F)(F)CC5)cs4)CC3)[nH]c(=O)c2C1 [23-1, (R)-6-(2-(3-chlorophenyl)-2-hydroxyacetyl)-2-(1-(4-(4,4-difluorocyclohexyl)thiophen-2-yl)cyclopropyl)-5,6,7,8-tetrahydropyrido[4,3-d]pyrimidin-4(3H)-one] | < 50 | < 10 |
| O=C(C(O)c1cccc(Oc2ccccc2)c1)N1CCc2nc(C3(c4cccc(Cl)c4)CC3)[nH]c(=O)c2C1 (stereo not shown) [14-21] | < 50 |  |
| CC(C)c1csc(C2(c3nc4c(c(=O)[nH]3)CN(C(=O)[C@H](O)c3cccc(-c5cccc(Cl)c5)c3)CCC4)CC2)c1 [54-3] | < 50 | < 10 |
| N#Cc1ccccc1-c1cccc(C2(c3nc4c(c(=O)[nH]3)CN(C(=O)[C@H](O)c3cccc(C(F)(F)F)c3)CCC4)CC2)c1 [42-63] | < 50 | < 10 |
| Cc1cc(F)cc(-c2cccc(C(O)C(=O)N3CCc4nc(C5(c6ccccc6)CC5)[nH]c(=O)c4C3)c2)c1 (stereo not shown) [44-35] | < 50 |  |
| O=C(C(O)c1cccc(-c2cc(F)cc(Cl)c2)c1)N1CCCc2nc(C3(c4ccccc4)CC3)[nH]c(=O)c2C1 (stereo not shown) [49-4] | < 50 | < 10 |
| O=C(C(O)c1cccc(C2CC2)c1)N1CCCc2nc(C3(c4cccc(Cl)c4)CC3)[nH]c(=O)c2C1 (stereo not shown) [17-24] | < 50 | < 10 |
| O=C([C@H](O)c1cccc(-c2cccc(C3CC3)c2)c1)N1CCCc2nc(C3(c4cccc(-c5csc6ccccc56)c4)CC3)[nH]c(=O)c2C1 [52-15] | < 50 | < 10 |
| CC(C)(C)c1cccc(-c2cccc([C@@H](O)C(=O)N3CCCc4nc(C5(c6cc(-c7ccccc7)cs6)CC5)[nH]c(=O)c4C3)c2)c1 [54-12] | < 50 | < 10 |
| O=C([C@H](O)c1cccc(C(F)(F)F)c1)N1CCCc2nc(C3(c4cccc(C(F)(F)F)c4)CC3)[nH]c(=O)c2C1 [17-3] | < 50 | < 3 |
| CC(C)c1csc(C2(c3nc4c(c(=O)[nH]3)CN(C(=O)C(O)c3cccc(Cl)c3F)CCC4)CC2)c1 (stereo not shown) [18-17] | < 50 | < 3 |
| O=C(Cc1cccc(-c2cccc(Cl)c2)c1)N1CCCc2nc(C3(c4cccc(Cl)c4)CC3)[nH]c(=O)c2C1 [17-100] | < 50 | < 3 |
| CC(C)(C)c1ccc(-c2cccc(C3(c4nc5c(c(=O)[nH]4)CN(C(=O)[C@H](O)c4cccc(Cl)c4)CCC5)CC3)c2)cc1 [40-5] | < 50 | < 10 |
| CC(C)c1csc(C2(c3nc4c(c(=O)[nH]3)CN(C(=O)[C@H](O)c3cccc(-c5cccc(C(C)(C)C)c5)c3)CCC4)CC2)c1 [54-1] | < 50 | < 3 |
| O=C(Cc1cccc(SC(F)(F)F)c1)N1CCCc2nc(C3(c4ccccc4)CC3)[nH]c(=O)c2C1 [17-26] | < 50 | < 10 |
| CC(C)N(C(=O)c1csc(C2(c3nc4c(c(=O)[nH]3)CN(C(=O)[C@H](O)c3cccc(C(F)(F)F)c3)CCC4)CC2)c1)C(C)C [59-14, (R)-5-(1-(6-(2-hydroxy-2-(3-(trifluoromethyl)phenyl)acetyl)-4-oxo-4,5,6,7,8,9-hexahydro-3H-pyrimido[5,4-c]azepin-2-yl)cyclopropyl)-N,N-diisopropylthiophene-3-carboxamide] | < 50 | < 10 |
| O=C(C(O)c1cccc(-c2ccc(F)c(Cl)c2)c1)N1CCc2nc(C3(c4ccccc4)CC3)[nH]c(=O)c2C1 (stereo not shown) [44-14] | < 50 | < 10 |
| Cn1ncc2cc(-c3cccc(C4(c5nc6c(c(=O)[nH]5)CN(C(=O)[C@H](O)c5cccc(Cl)c5)CCC6)CC4)c3)ccc21 [40-12] | < 50 | < 3 |
| O=C(C(O)c1cccc(-c2cccc(C(F)(F)F)n2)c1)N1CCc2nc(C3(c4ccccc4)CC3)[nH]c(=O)c2C1 (stereo not shown) [44-4] | < 50 | < 10 |
| O=C([C@H](O)c1cccc(C(F)(F)F)c1)N1CCCc2nc(C3(c4cncc(C5CCCCC5)c4)CC3)[nH]c(=O)c2C1 [19-1] | < 50 | < 3 |
| O=C(N1CCc2nc(C3(c4cccc(Cl)c4)CC3)[nH]c(=O)c2C1)C(F)(F)c1cccc(C(F)(F)F)c1 [20-10] | < 50 |  |
| O=C([C@H](O)c1cccc(-c2cc(Cl)cc(Cl)c2)c1)N1CCc2nc(C3(c4ccccc4)CC3)[nH]c(=O)c2C1 [44-100] | < 50 | < 10 |
| O=C(C(O)c1cccc(-c2cc(Cl)cc(C(F)(F)F)c2)c1)N1CCc2nc(C3(c4ccccc4)CC3)[nH]c(=O)c2C1 (stereo not shown) [44-3] | < 50 | < 10 |
| Cc1ccc(-c2cccc(C(O)C(=O)N3CCc4nc(C5(c6ccccc6)CC5)[nH]c(=O)c4C3)c2)cc1Cl (stereo not shown) [44-26] | < 50 |  |

| Compound | IC50 [1] [nM] | IC50 [2] [nM] |
| --- | --- | --- |
| O=C([C@H](O)c1cccc(-c2ccc(OCc3ccccc3)cc2)c1)N1CCc2nc(C3(c4ccccc4)CC3)[nH]c(=O)c2C1 [44-107] | < 50 | < 10 |
| O=C([C@H](O)c1cccc(C(F)(F)F)c1)N1CCc2nc(C3(c4cc(C5CCOCC5)cs4)CC3)[nH]c(=O)c2C1 [26-2] | < 50 |  |
| O=C([C@H](O)c1cccc(-c2ccc3c(c2)OC(F)(F)O3)c1)N1CCCc2nc(C3(c4cccc(Cl)c4)CC3)[nH]c(=O)c2C1 [50-15] | < 50 | < 3 |
| O=C([C@H](O)c1cccc(C(F)(F)F)c1)N1CCCc2nc(C3(c4cc(-c5cccnc5)cs4)CC3)[nH]c(=O)c2C1 [41-2] | < 50 |  |
| O=C([C@H](O)c1cccc(C(F)(F)F)c1)N1CCCc2nc(C3(c4cccc(-c5ccncc5)c4)CC3)[nH]c(=O)c2C1 [42-17] | < 50 | < 10 |
| O=C([C@H](O)c1cccc(-c2ccc(OCc3ccccc3)nc2)c1)N1CCc2nc(C3(c4ccccc4)CC3)[nH]c(=O)c2C1 [44-83] | < 50 | < 10 |
| O=C([C@H](O)c1cccc(C(F)(F)F)c1)N1CCCc2nc(C3(c4cc(CCC56CC7CC(CC(C7)C5)C6)cs4)CC3)[nH]c(=O)c2C1 [30-5] | < 50 | < 10 |
| O=C(C(O)c1cccc(S(F)(F)(F)(F)F)c1)N1CCc2nc(C3(c4cccs4)CC3)[nH]c(=O)c2C1 (stereo not shown) [15-13] | < 50 |  |
| COCCCc1csc(C2(c3nc4c(c(=O)[nH]3)CN(C(=O)[C@H](O)c3cccc(C(F)(F)F)c3)CCC4)CC2)c1 [30-10] | < 50 | < 10 |
| O=C(C(O)c1cccc(-c2ccc(C(F)(F)F)cc2)c1)N1CCc2nc(C3(c4ccccc4)CC3)[nH]c(=O)c2C1 (stereo not shown) [44-25] | < 50 |  |
| O=C(C(O)c1cccc(-c2cccc(C(F)(F)F)c2)n1)N1CCc2nc(C3(c4ccccc4)CC3)[nH]c(=O)c2C1 (stereo not shown) [48-1] | < 50 | < 10 |
| CC(C)c1cncc(C2(c3nc4c(c(=O)[nH]3)CN(C(=O)C(O)c3cccc(C(F)(F)F)c3F)CCC4)CC2)c1 (stereo not shown) [19-7] | < 50 |  |
| C=C(C)c1cccc(C2(c3nc4c(c(=O)[nH]3)CN(C(=O)[C@H](O)c3cccc(C(F)(F)F)c3)CCC4)CC2)c1 [17-1] | < 50 | < 3 |
| CC(C)c1cncc(C2(c3nc4c(c(=O)[nH]3)CN(C(=O)[C@H](O)c3cccc(-c5ccc(C(C)(C)C)cc5)c3)CC4)CC2)c1 [47-1] | < 50 | < 10 |
| Cc1ccccc1-c1cccc(C2(c3nc4c(c(=O)[nH]3)CN(C(=O)[C@H](O)c3cccc(C(F)(F)F)c3)CCC4)CC2)c1 [42-60] | < 50 | < 10 |
| O=C([C@H](O)c1cccc(-c2cccc(OC(F)(F)F)c2)c1)N1CCCc2c(nc(C3(c4ccccc4)CC3)[nH]c2=O)C1 [49-56] | < 50 | < 10 |
| Cn1ncc2cc(-c3cccc(C4(c5nc6c(c(=O)[nH]5)CN(C(=O)[C@H](O)c5cccc(C(F)(F)F)c5)CCC6)CC4)c3)ccc21 [42-20] | < 50 | < 10 |
| O=C([C@H](O)c1cccc(C(F)(F)F)c1)N1CCc2nc(C3(c4cccc(-c5cnsc5)c4)CC3)[nH]c(=O)c2C1 [37-3] | < 50 | < 3 |
| O=C([C@H](O)c1cccc(-c2ccc(C(F)(F)F)cc2)c1)N1CCCc2nc(C3(c4cccc(Cl)c4)CC3)[nH]c(=O)c2C1 [50-24] | < 50 | < 10 |
| O=C([C@H](O)c1cccc(C(F)(F)F)c1)N1CCCc2nc(C3(c4cccc(-c5ccnc(C(F)(F)F)c5)c4)CC3)[nH]c(=O)c2C1 [42-48] | < 50 | < 3 |
| O=C(COc1cccc(C(F)(F)F)c1)N1CCCc2nc(C3(c4cccc(Cl)c4)CC3)[nH]c(=O)c2C1 [17-147] | < 50 |  |
| O=C([C@H](O)c1cccc(C(F)(F)F)c1)N1CCCc2nc(C3(c4cccc(Cl)c4)CC3)[nH]c(=O)c2C1 [17-12] | < 50 | < 10 |
| CC(C)c1cncc(C2(c3nc4c(c(=O)[nH]3)CN(C(=O)[C@H](O)c3cccc(-c5ccc(Cl)cc5)c3)CC4)CC2)c1 [47-4] | < 50 | < 10 |
| COCCOc1cccc(-c2cccc(C(O)C(=O)N3CCc4nc(C5(c6ccccc6)CC5)[nH]c(=O)c4C3)c2)c1 (stereo not shown) [44-29] | < 50 |  |
